Results on eleven compounds are retold here after ChEMBL document CHEMBL1201862, “PubChem BioAssay data set” (2004).

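Five compound concentrations were applied to cells in 96-well plates for 48 hours; endpoints were derived by simple linear interpolation of the resulting dose-response curve. The concentration for 50% growth inhibition is given as GI50.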 Calls of active or inactive are those of the source. Rule as the data show it: active = GI50 up to about 1.1 µM and inactive = higher. Where a SMILES comes first, the peptide text is derived from it. The star is where a group is joined. Boc = CC(C)(C)OC(=O)* Bounds are passed on as bounds.

Among the test systems are A549; M19-MEL; M14; OVCAR-8; K562; CAKI-1; SK-MEL-28; SK-OV-3; OVCAR-5; SF-268; 786-0; UACC-257; U-251; SNB-19; MDA-N; BT-549; T47D; NCI-H226; RXF 393; HL-60.
Holding throughout (assay): inhibition of tumour cell growth, NCI panel, 48 h

Take `COc1cc2cccc(/N=C/c3c(Br)ccc(OC)c3OC(C)C)c2cc1OC`: the GI50 in the experiment with A549 is 82.4 µM (inactive); with M19-MEL, 30.1 µM (inactive); with M14, 27.1 µM (inactive); in the experiment with OVCAR-8 it was 44.4 µM (inactive); with K562 it was 27 µM (inactive); with CAKI-1 it was 27.9 µM (inactive). Moreover, the GI50 in the experiment on SK-MEL-28 is 41.6 µM (inactive); with SK-OV-3, > 100 µM (inactive); with OVCAR-5 it was > 100 µM (inactive); in the experiment with SF-268 it was 36 µM (inactive); with 786-0, 26.5 µM (inactive); with UACC-257 it was 35.2 µM (inactive). Further, the GI50 in the experiment on U-251 was 32.8 µM (inactive); in the experiment on SNB-19 it was > 100 µM (inactive).
With `CC1=C(C(=O)OC(C)C)C(c2ccccc2C(F)(F)F)C(C(=O)OC(CO[N+](=O)[O-])CO[N+](=O)[O-])=C(C)N1` (stereo not drawn), the GI50 is 3.92 µM (inactive) with A549; 6.98 µM (inactive) with M14; 8.13 µM (inactive) with OVCAR-8; 2.69 µM (inactive) with K562; 9.98 µM (inactive) in the experiment on CAKI-1; 4.61 µM (inactive) with MDA-N. Further, the GI50 in the experiment on BT-549 is 5.11 µM (inactive); in the experiment on SK-MEL-28 it was 16.8 µM (inactive); with SK-OV-3 it was 11.2 µM (inactive); in the experiment on T47D it was 3.83 µM (inactive); in the experiment with NCI-H226, 13.7 µM (inactive); in the experiment with OVCAR-5 it was 19.3 µM (inactive). Moreover, the GI50 is 8.63 µM (inactive) in the experiment with SF-268; 2.87 µM (inactive) in the experiment on 786-0; 6.34 µM (inactive) in the experiment on UACC-257; 8.26 µM (inactive) in the experiment on U-251; 9.16 µM (inactive) with RXF 393; 95.5 µM (inactive) with HL-60. Also, the GI50 in the experiment with SNB-19 is 14.7 µM (inactive).
As to `COC(=O)[C@@H]1[C@H]2CC[C@]3(C)[C@@H](OC(C)=O)CC[C@H]3[C@@H]2CC[C@H]1C1(C)SCCS1`, the GI50 was 25.1 µM (inactive) in the experiment with A549; 21.5 µM (inactive) with M14; 25 µM (inactive) in the experiment on OVCAR-8; 36.1 µM (inactive) with K562; 41.6 µM (inactive) in the experiment with CAKI-1; 22 µM (inactive) with MDA-N. Further, the GI50 is 18.4 µM (inactive) with BT-549; 34.7 µM (inactive) with SK-MEL-28; 53.6 µM (inactive) in the experiment with SK-OV-3; 20.4 µM (inactive) in the experiment with T47D; 23.9 µM (inactive) with NCI-H226; 22.8 µM (inactive) in the experiment with OVCAR-5. The GI50 is 44.4 µM (inactive) with SF-268; 22.7 µM (inactive) in the experiment on 786-0; 25.2 µM (inactive) with UACC-257; 23.6 µM (inactive) with U-251; 20.5 µM (inactive) in the experiment with RXF 393; 18.2 µM (inactive) in the experiment on HL-60. The GI50 in the experiment with SNB-19 was 50.5 µM (inactive).
Turning to `COc1ccc([C@@]23Oc4cc(OC)cc(OC)c4[C@]2(O)[C@H](O)[C@H](C(=O)N(C)C)[C@H]3c2ccccc2)cc1` [ROCAGLAMIDE], the GI50 in the experiment on A549 is 0.00353 µM (active); with M14, 0.00327 µM (active); with OVCAR-8, 0.0109 µM (active); in the experiment on K562, 0.00237 µM (active); with CAKI-1, 0.0292 µM (active); in the experiment on MDA-N, 0.00355 µM (active). Further, the GI50 with BT-549 was 0.0583 µM (active); in the experiment on SK-MEL-28, 0.00689 µM (active); in the experiment with SK-OV-3 it was 0.00575 µM (active); in the experiment with T47D, 0.00219 µM (active); in the experiment with NCI-H226 it was 0.0113 µM (active); in the experiment on OVCAR-5 it was 0.00991 µM (active). Further, the GI50 in the experiment with SF-268 was 0.00849 µM (active); in the experiment with 786-0, 0.00953 µM (active); with UACC-257, 0.0184 µM (active); in the experiment on U-251, 0.00605 µM (active); in the experiment with RXF 393, 0.0206 µM (active); with HL-60, 0.00383 µM (active). The GI50 in the experiment with SNB-19 was 0.267 µM (active).
`COC(=O)CNC(=O)C(Cc1ccccc1)NC(=O)C(CCSC)NC(=O)C(Cc1ccc(O)cc1)NC(=O)OC(C)(C)C` (stereo not drawn) (Boc-YMFG-OMe; configuration not given here): the GI50 was > 100 µM (inactive) in the experiment with A549; > 100 µM (inactive) with M14; 39.9 µM (inactive) in the experiment with OVCAR-8; 49.8 µM (inactive) in the experiment with K562; > 100 µM (inactive) in the experiment on CAKI-1; 33.3 µM (inactive) in the experiment on MDA-N. Further, the GI50 with BT-549 was 35.3 µM (inactive); with SK-MEL-28 it was 18.2 µM (inactive); with SK-OV-3, > 100 µM (inactive); in the experiment with T47D, 32.4 µM (inactive); with NCI-H226, > 100 µM (inactive); in the experiment on OVCAR-5 it was > 100 µM (inactive). Moreover, the GI50 is 29.7 µM (inactive) with SF-268; > 100 µM (inactive) in the experiment on 786-0; 19.1 µM (inactive) with UACC-257; 41.6 µM (inactive) with U-251; 47.6 µM (inactive) with RXF 393; 53 µM (inactive) in the experiment with HL-60. In addition, the GI50 in the experiment with SNB-19 was 37.8 µM (inactive).
For `O=C(O)c1ccc(Nc2ccnc3cc(Cl)ccc23)cc1O`, the GI50 in the experiment on A549, with M14, in the experiment with OVCAR-8, in the experiment with K562, in the experiment on CAKI-1 and in the experiment on MDA-N was > 100 µM (inactive) each time. Further, the GI50 in the experiment with BT-549, with SK-MEL-28, in the experiment with SK-OV-3, with T47D, in the experiment on NCI-H226 and in the experiment with OVCAR-5 was > 100 µM (inactive) throughout. Further, the GI50 in the experiment with SF-268 is > 100 µM (inactive); in the experiment on 786-0, > 100 µM (inactive); in the experiment on UACC-257, > 100 µM (inactive); in the experiment on U-251 it was 95.1 µM (inactive); in the experiment with RXF 393 it was > 100 µM (inactive); in the experiment on HL-60 it was > 100 µM (inactive). Also, the GI50 in the experiment with SNB-19 is > 100 µM (inactive).
`CN(C)/N=N/c1nc2c(c(=O)n(C)c(=O)n2C)n1CC1CO1` (stereo not drawn): the GI50 was 20 µM (inactive) with A549; 15.8 µM (inactive) in the experiment on M14; 14.5 µM (inactive) with OVCAR-8; 19.2 µM (inactive) with K562; 13.9 µM (inactive) in the experiment on CAKI-1; 19.9 µM (inactive) in the experiment on MDA-N. Moreover, the GI50 was 17.1 µM (inactive) in the experiment with BT-549; 20.7 µM (inactive) in the experiment on SK-MEL-28; 17.2 µM (inactive) with SK-OV-3; 18.4 µM (inactive) in the experiment on T47D; 8.51 µM (inactive) in the experiment with NCI-H226; 32 µM (inactive) in the experiment on OVCAR-5. In addition, the GI50 in the experiment on SF-268 is 11.6 µM (inactive); with 786-0, 16.6 µM (inactive); in the experiment on UACC-257, 16.6 µM (inactive); in the experiment on U-251 it was 12.5 µM (inactive); in the experiment with RXF 393, 2.88 µM (inactive); with HL-60, 4 µM (inactive). Further, the GI50 in the experiment on SNB-19 was 19.9 µM (inactive).
Consider `O=C(N[C@H]1CCC[C@H]1C(=O)Nc1ccc(C(F)(F)F)cc1)OCc1ccccc1`, for which the GI50 with A549, in the experiment with M14, in the experiment with OVCAR-8, in the experiment on K562, in the experiment with CAKI-1 and in the experiment on MDA-N was > 100 µM (inactive) throughout. In addition, the GI50 is > 100 µM (inactive) with BT-549; > 100 µM (inactive) with SK-MEL-28; > 100 µM (inactive) in the experiment on SK-OV-3; > 100 µM (inactive) with T47D; 65.3 µM (inactive) with NCI-H226; > 100 µM (inactive) in the experiment with OVCAR-5. For the same compound, the GI50 with SF-268, with 786-0, in the experiment on UACC-257, with U-251, with RXF 393 and in the experiment with HL-60 was > 100 µM (inactive) throughout. In addition, the GI50 in the experiment with SNB-19 is > 100 µM (inactive).
Turning to `C[C@]12CC/C(=N\OC(=O)Nc3ccccc3)C=C1CC[C@@H]1C2CC[C@@]2(C)C1CC[C@@H]2OC(=O)Nc1ccccc1` (stereo partly drawn), the GI50 in the experiment on A549 was > 100 µM (inactive); in the experiment with M19-MEL it was 66.4 µM (inactive); in the experiment on M14, 35.9 µM (inactive); in the experiment with OVCAR-8 it was > 100 µM (inactive); in the experiment on K562 it was 17.7 µM (inactive); in the experiment on CAKI-1 it was 3.27 µM (inactive). Besides, the GI50 with SK-OV-3 is > 100 µM (inactive); with OVCAR-5, > 100 µM (inactive); in the experiment with SF-268, > 100 µM (inactive); in the experiment with 786-0 it was > 100 µM (inactive); in the experiment with U-251, > 100 µM (inactive); with HL-60, 8.79 µM (inactive). In addition, the GI50 in the experiment on SNB-19 was > 100 µM (inactive).
Regarding `Cc1cc(O)c(O)c(Oc2cc(C)cc(O)c2O)c1`, the GI50 in the experiment on A549 was 73.1 µM (inactive); with M14, 14.3 µM (inactive); with OVCAR-8, 16.2 µM (inactive); with K562, 15.1 µM (inactive); with CAKI-1 it was 32 µM (inactive); in the experiment on MDA-N it was 18.7 µM (inactive). Besides, the GI50 in the experiment on BT-549 was 20.1 µM (inactive); with SK-MEL-28, 32.2 µM (inactive); with SK-OV-3, 36.8 µM (inactive); with T47D, 26.7 µM (inactive); with NCI-H226 it was 18.4 µM (inactive); in the experiment with OVCAR-5, 34.2 µM (inactive). Moreover, the GI50 in the experiment on SF-268 was 17.8 µM (inactive); in the experiment on 786-0, 18.2 µM (inactive); in the experiment on UACC-257, 6.07 µM (inactive); in the experiment with U-251, 9.79 µM (inactive); with RXF 393, 24.5 µM (inactive); with HL-60, 1.99 µM (inactive). In addition, the GI50 in the experiment with SNB-19 is 35.9 µM (inactive).
For `COc1cc(/C=C2\C(=O)N(Cc3ccccc3)C(c3ccccc3)S2(=O)=O)cc(OC)c1OC` (stereo not drawn), the GI50 in the experiment on A549 was 29.9 µM (inactive); with M14, 52.7 µM (inactive); in the experiment on OVCAR-8, 37.2 µM (inactive); with K562, 5.12 µM (inactive); with CAKI-1, > 100 µM (inactive); with MDA-N it was 61.8 µM (inactive). The GI50 with BT-549 was 36.3 µM (inactive); with SK-MEL-28 it was 93.8 µM (inactive); with SK-OV-3 it was > 100 µM (inactive); in the experiment on T47D, 29.2 µM (inactive); with NCI-H226 it was 50.6 µM (inactive); in the experiment with OVCAR-5, > 100 µM (inactive). Besides, the GI50 is 31.3 µM (inactive) in the experiment with SF-268; 29.6 µM (inactive) in the experiment with 786-0; 26.2 µM (inactive) with UACC-257; 92.3 µM (inactive) in the experiment with U-251; 62.7 µM (inactive) in the experiment on RXF 393; 5.13 µM (inactive) in the experiment on HL-60. The GI50 in the experiment on SNB-19 was > 100 µM (inactive).
